Active and inactive are the calls of the source. The calls are words filed in the database; no cut-off is given here.
Legend:
Histone deacetylase 2 [1] = target: T1, Histone deacetylase 2 (Homo sapiens, UniProt Q92769); assay: Inhibition of recombinant human HDAC2 using p53 (Ac-RHKK(Acetyl)-AMC) as substrate preincubated for 5 mins followed by substrate addition and measured after 30 mins by fluorescence based analysis
HEK293 = assay: Cytotoxicity against HEK293 cells assessed as reduction in cell viability at 50 uM after 24 hrs by alamar blue assay; format: toxicity, cell-based; conditions: human, hek293, 24 h
Histone deacetylase 8 = target: T2, Histone deacetylase 8 (Homo sapiens, UniProt Q9BY41); assay: Inhibition of recombinant human HDAC8 using (Abz-SRGK(thio-TFA)FFRR-NH2) as substrate preincubated for 5 mins followed by substrate addition by fluorescence based analysis
T2 sequence (Q9BY41 whole entry): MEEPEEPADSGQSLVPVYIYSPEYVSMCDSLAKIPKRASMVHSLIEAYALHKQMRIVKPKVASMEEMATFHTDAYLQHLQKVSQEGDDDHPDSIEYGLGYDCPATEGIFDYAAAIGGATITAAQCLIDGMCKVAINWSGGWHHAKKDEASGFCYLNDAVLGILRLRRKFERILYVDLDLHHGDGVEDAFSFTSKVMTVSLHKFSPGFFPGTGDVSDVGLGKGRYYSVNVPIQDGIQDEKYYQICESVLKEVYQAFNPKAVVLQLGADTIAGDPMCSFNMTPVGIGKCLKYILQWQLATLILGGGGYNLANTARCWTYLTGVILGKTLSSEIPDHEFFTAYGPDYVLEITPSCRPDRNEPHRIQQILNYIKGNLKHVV

Histone deacetylase 3 = Histone deacetylase 3 (Homo sapiens, UniProt O15379); assay: Inhibition of recombinant human HDAC3 using p53 (Ac-RHKK(Acetyl)-AMC) as substrate preincubated for 5 mins followed by substrate addition and measured after 30 mins by fluorescence based analysis
Chain of Histone deacetylase 3 (O15379 whole entry): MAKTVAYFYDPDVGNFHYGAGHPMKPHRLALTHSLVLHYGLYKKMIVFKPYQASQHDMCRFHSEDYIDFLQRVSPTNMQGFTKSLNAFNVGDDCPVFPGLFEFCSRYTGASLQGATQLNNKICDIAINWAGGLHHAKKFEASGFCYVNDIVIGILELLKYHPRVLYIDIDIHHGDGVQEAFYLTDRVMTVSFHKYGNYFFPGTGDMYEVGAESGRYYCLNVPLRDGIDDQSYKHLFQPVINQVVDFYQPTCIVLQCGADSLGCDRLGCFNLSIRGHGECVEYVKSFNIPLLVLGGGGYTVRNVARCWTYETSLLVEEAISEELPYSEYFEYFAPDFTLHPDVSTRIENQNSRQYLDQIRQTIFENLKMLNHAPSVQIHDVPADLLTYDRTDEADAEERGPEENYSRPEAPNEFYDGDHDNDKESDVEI

Histone deacetylase 1 [2] = target: T3, Histone deacetylase 1 (Homo sapiens, UniProt Q13547); assay: Inhibition of recombinant human HDAC1 using p53 (Ac-RHKK(Acetyl)-AMC) as substrate preincubated for 5 mins followed by substrate addition and measured after 90 mins by fluorescence based analysis
T3 sequence (Q13547 whole entry): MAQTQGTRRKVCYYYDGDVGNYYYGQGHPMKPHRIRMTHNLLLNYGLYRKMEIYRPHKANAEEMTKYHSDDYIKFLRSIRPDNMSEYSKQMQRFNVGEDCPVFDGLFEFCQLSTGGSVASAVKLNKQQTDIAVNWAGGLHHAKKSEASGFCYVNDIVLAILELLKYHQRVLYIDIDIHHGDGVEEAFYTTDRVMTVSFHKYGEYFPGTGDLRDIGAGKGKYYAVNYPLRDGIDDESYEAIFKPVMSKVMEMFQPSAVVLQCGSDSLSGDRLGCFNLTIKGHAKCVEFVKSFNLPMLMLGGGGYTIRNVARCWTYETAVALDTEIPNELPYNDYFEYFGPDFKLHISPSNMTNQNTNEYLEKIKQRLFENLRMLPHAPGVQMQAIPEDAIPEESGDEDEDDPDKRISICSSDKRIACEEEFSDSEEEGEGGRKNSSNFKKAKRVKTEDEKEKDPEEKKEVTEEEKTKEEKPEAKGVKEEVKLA

[3] = target: T4, Histone deacetylase 8 (Homo sapiens) (UniProt Q9BY41); assay: Inhibition of recombinant human HDAC8 at 1 uM using (Abz-SRGK(thio-TFA)FFRR-NH2) as substrate preincubated for 5 mins followed by substrate addition by fluorescence based analysis relative to control
T4 sequence (whole entry): T2 sequence (Q9BY41 whole entry)

Histone deacetylase 2 [4] = target: T1, Histone deacetylase 2; assay: Inhibition of recombinant human HDAC2 at 1 uM using p53 (Ac-RHKK(Acetyl)-AMC) as substrate preincubated for 5 mins followed by substrate addition and measured after 30 mins by fluorescence based analysis relative to control; conditions: time 35.0 min
Histone deacetylase 2 [5] = target: T1, Histone deacetylase 2; assay: Inhibition of recombinant human HDAC2 at 10 uM using p53 (Ac-RHKK(Acetyl)-AMC) as substrate preincubated for 5 mins followed by substrate addition and measured after 30 mins by fluorescence based analysis relative to control; conditions: time 35.0 min
Histone deacetylase 1 [6] = target: T3, Histone deacetylase 1; assay: Inhibition of recombinant human HDAC1 at 10 uM using p53 (Ac-RHKK(Acetyl)-AMC) as substrate preincubated for 5 mins followed by substrate addition and measured after 90 mins by fluorescence based analysis relative to control; conditions: time 95.0 min
[7] = target: T4, Histone deacetylase 8 (Homo sapiens); assay: Inhibition of recombinant human HDAC8 at 10 uM using (Abz-SRGK(thio-TFA)FFRR-NH2) as substrate preincubated for 5 mins followed by substrate addition by fluorescence based analysis relative to control
Histone deacetylase 1 [8] = target: T3, Histone deacetylase 1; assay: Inhibition of recombinant human HDAC1 at 1 uM using p53 (Ac-RHKK(Acetyl)-AMC) as substrate preincubated for 5 mins followed by substrate addition and measured after 90 mins by fluorescence based analysis relative to control; conditions: time 95.0 min
[9] = target: T5, Protein deacetylase HDAC6 (Homo sapiens, UniProt Q9UBN7); assay: Inhibition of recombinant human HDAC6 (unknown origin)
T5 sequence (Q9UBN7 whole entry): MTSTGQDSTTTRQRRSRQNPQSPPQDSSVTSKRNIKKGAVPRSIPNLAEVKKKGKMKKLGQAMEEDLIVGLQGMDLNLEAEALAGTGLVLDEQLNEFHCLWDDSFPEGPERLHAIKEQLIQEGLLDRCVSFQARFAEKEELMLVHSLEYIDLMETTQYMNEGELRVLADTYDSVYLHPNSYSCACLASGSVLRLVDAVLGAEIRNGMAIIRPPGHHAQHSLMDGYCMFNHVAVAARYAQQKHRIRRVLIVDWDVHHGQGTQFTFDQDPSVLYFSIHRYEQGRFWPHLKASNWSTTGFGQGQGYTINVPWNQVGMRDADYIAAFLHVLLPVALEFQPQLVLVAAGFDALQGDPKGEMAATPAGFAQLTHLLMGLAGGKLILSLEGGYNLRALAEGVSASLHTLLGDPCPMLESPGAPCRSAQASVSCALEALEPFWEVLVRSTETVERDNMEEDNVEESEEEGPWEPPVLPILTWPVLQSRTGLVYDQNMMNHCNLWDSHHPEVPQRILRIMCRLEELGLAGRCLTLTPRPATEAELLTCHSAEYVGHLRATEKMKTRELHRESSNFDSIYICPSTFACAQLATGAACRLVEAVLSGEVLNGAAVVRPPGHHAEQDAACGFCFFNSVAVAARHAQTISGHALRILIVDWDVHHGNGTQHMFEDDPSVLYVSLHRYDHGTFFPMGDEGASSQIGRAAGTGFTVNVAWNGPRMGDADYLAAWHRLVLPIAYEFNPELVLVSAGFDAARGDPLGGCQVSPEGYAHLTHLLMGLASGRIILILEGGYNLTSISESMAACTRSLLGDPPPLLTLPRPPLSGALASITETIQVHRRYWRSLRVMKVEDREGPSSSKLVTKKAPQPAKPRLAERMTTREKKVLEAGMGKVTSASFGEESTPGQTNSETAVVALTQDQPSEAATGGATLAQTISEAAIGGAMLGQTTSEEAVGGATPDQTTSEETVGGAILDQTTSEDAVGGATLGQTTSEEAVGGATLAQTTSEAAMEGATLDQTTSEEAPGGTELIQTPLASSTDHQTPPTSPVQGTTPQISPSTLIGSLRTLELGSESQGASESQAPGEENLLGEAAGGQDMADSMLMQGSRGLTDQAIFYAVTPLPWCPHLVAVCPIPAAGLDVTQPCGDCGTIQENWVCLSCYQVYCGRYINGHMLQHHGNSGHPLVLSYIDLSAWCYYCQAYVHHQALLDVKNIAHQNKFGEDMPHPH

Histone deacetylase 4 = Histone deacetylase 4 (Homo sapiens, UniProt P56524); assay: Inhibition of HDAC4 (unknown origin)
Chain of Histone deacetylase 4 (P56524 whole entry): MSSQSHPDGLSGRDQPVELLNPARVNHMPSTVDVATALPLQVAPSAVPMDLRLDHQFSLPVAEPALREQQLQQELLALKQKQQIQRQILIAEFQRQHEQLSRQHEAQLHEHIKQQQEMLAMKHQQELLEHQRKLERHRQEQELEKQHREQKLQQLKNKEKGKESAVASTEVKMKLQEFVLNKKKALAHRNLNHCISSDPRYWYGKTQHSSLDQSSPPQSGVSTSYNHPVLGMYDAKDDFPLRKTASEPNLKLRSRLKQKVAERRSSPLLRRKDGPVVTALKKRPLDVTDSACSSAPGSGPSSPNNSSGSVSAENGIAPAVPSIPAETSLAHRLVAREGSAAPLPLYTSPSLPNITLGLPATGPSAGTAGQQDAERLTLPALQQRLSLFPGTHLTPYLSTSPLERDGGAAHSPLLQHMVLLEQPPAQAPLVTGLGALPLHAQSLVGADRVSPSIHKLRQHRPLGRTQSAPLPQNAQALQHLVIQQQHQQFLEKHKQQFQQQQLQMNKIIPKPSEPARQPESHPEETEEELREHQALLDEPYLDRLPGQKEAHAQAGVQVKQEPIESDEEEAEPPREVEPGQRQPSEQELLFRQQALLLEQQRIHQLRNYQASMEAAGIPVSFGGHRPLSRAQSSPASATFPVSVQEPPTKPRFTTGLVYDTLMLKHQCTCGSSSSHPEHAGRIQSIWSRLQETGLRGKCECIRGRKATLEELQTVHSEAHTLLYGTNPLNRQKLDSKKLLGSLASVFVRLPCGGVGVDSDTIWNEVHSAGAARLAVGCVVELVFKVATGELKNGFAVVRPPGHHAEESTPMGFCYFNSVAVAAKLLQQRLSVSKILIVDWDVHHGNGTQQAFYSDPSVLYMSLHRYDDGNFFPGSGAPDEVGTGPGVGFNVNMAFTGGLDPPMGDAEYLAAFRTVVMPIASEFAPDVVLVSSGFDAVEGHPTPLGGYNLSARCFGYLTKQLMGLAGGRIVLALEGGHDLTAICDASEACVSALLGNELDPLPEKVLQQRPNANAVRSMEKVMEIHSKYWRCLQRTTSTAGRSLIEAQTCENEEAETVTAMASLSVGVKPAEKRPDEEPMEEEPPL

Histone deacetylase 11 = target: T6, Histone deacetylase 11 (Homo sapiens, UniProt Q96DB2); assay: Inhibition of recombinant human HDAC11 preincubated for 10 mins followed by substrate addition by fluorescence based analysis
T6 sequence (Q96DB2 whole entry): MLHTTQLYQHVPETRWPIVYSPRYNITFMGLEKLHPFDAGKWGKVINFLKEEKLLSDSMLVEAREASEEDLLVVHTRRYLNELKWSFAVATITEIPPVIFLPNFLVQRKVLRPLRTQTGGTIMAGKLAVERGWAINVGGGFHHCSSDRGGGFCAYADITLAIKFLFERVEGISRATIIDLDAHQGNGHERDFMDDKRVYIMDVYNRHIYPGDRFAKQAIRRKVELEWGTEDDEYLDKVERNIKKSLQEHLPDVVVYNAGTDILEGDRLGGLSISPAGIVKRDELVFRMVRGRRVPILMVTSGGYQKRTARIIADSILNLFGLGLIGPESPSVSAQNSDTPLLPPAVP

[10] = target: T4, Histone deacetylase 8 (Homo sapiens); assay: Inhibition of HDAC8 in human Jurkat T cells assessed as increase in H3K27 acetylation at 10 uM after 6 hrs by Western blot analysis; format: cell-based

T1 sequence (Q92769 whole entry): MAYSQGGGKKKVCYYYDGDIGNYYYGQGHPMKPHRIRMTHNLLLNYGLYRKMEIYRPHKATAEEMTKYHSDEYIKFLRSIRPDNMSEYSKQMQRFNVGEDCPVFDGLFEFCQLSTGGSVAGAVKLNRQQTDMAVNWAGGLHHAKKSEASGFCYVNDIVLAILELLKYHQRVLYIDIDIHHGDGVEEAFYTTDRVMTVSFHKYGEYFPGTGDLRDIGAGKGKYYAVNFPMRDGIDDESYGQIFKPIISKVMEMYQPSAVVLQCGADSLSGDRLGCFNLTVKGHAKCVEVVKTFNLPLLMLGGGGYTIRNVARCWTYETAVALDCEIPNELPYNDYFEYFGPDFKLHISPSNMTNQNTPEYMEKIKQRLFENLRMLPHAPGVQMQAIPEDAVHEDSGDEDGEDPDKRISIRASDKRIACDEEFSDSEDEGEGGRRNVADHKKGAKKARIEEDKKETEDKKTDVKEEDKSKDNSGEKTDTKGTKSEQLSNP

IC50 (Histone deacetylase 2 [1])	IC50 (Histone deacetylase 8)	IC50 (Histone deacetylase 3)	IC50 (Histone deacetylase 1 [2])	inhibition [3]	inhibition (Histone deacetylase 2 [4])	inhibition (Histone deacetylase 2 [5])	inhibition (Histone deacetylase 1 [6])	inhibition [7]	inhibition (Histone deacetylase 1 [8])	IC50 [9]	IC50 (Histone deacetylase 4)	IC50 (Histone deacetylase 11)	inhibition [10]	Structure (SMILES)	Cell viability (HEK293)
3200 nM	16 nM	3000 nM	560 nM	–	–	–	–	–	–	–	–	–	–	CCCCCCNNC(=O)c1cnc(NCc2ccccc2)nc1	88.4%
–	–	200 nM	–	66%	46%	93%	85%	94%	61%	–	–	–	–	CCCCNNC(=O)c1cnc(NCc2ccccc2)nc1	88.9%
–	–	58 nM	–	33%	–	–	88%	83%	66%	–	–	–	–	CCCNNC(=O)c1cnc(NCc2cc(Cl)ccc2Cl)nc1	78.2%
> 20000 nM	46 nM	> 20000 nM	> 20000 nM	–	–	–	–	–	–	> 20000 nM	> 20000 nM	8600 nM	–	CCCCCCNNC(=O)c1cccc(NCc2ccccc2)c1	71.2%
1400 nM	13 nM	1000 nM	860 nM	–	–	–	–	–	–	–	–	–	–	CCCCCCNNC(=O)c1cnc(N2CCN(CCc3c[nH]c4ccccc34)CC2)nc1	47.1%
–	–	37 nM	–	62%	61%	96%	92%	88%	54%	–	–	–	–	CCCNNC(=O)c1cnc(NCc2ccc(Cl)cc2)nc1	83.2%
–	–	60 nM	–	43%	55%	92%	89%	87%	71%	–	–	–	–	CCCNNC(=O)c1cnc(NCc2ccccc2Cl)nc1	80.7%
2000 nM	350 nM	1500 nM	660 nM	–	–	–	–	–	–	–	–	–	–	CCCCCNNC(=O)c1ccc(-c2ccc(CNC(C)=O)cc2)cc1	90.8%
1200 nM	23 nM	1400 nM	400 nM	–	–	–	–	–	–	–	–	–	Active	CCCCCCNNC(=O)c1cnc(N2CCN(CCc3cn(C)c4ccccc34)CC2)nc1	31.8%
> 20000 nM	63 nM	> 20000 nM	8300 nM	–	–	–	–	–	–	–	–	–	Active	CCCCCCNNC(=O)c1cnc(NCc2cccc3ccccc23)nc1	65.7%
12000 nM	23 nM	> 20000 nM	48000 nM	–	–	–	–	–	–	–	–	–	–	CCCCCCNNC(=O)c1ccc(CNC(C)=O)cc1	113.3%
12000 nM	28 nM	7200 nM	2200 nM	–	–	–	–	–	–	–	–	–	Active	CCCCCCNNC(=O)c1cnc(NCCc2ccccc2)nc1	90.1%
5500 nM	–	1600 nM	1600 nM	–	–	–	–	–	–	–	–	–	–	CCCNNC(=O)c1ccc(CNC(C)=O)cc1	81.2%
2400 nM	250 nM	120 nM	590 nM	–	–	–	–	–	–	–	–	–	–	CCCNNC(=O)c1cnc(N2CCN(C)CC2)nc1	93.6%
700 nM	1000 nM	43.2 nM	250 nM	–	–	–	–	–	–	> 20000 nM	> 20000 nM	2000 nM	–	CCCNNC(=O)c1cnc(NCc2ccccc2)nc1	80.9%
330 nM	14 nM	300 nM	170 nM	–	–	–	–	–	–	–	–	–	Active	CCCCCCNNC(=O)c1cnc(N2CCN(Cc3cn(C)c4ccccc34)CC2)nc1	1.6%
1100 nM	360 nM	350 nM	620 nM	–	–	–	–	–	–	–	–	–	–	CCCCNNC(=O)c1ccc(-c2ccc(CNC(C)=O)cc2)cc1	80.1%
920 nM	–	110 nM	290 nM	–	–	–	–	–	–	–	–	–	Active	CCCNNC(=O)c1cnc(NCc2ccc(CNC(C)=O)cc2)nc1	93.1%
310 nM	5.9 nM	100 nM	170 nM	–	–	–	–	–	–	> 20000 nM	> 20000 nM	41 nM	Active	CCCCCCNNC(=O)c1cnc(N2CCN(Cc3c[nH]c4ccccc34)CC2)nc1	2.18%
4500 nM	19 nM	8500 nM	960 nM	–	–	–	–	–	–	–	–	–	Active	CCCCCCNNC(=O)c1cnc(NCc2ccc(CNC(C)=O)cc2)nc1	79.4%
–	–	81 nM	–	36%	46%	93%	91%	83%	53%	–	–	–	–	CCCNNC(=O)c1cnc(NCc2cccc3ccccc23)nc1	78.9%

— ChEMBL document CHEMBL5150060 (J Med Chem, 2022)
